From patent publication US6620841B1, “Aromatic heterocycle compounds having HIV integrase inhibiting activities” (Shionogi & Co., Ltd., priority 1998, dated 2003)

Legend:
HIV-1 integrase = HIV-1 integrase (Human immunodeficiency virus type 1 group M subtype B, UniProt P12497); assay: HIV-1 integrase inhibition assay (microtiter plate, substrate/target DNA, OD 405 nm)
Procedure: (2) Calculations of the Percent Inhibitions (the IC50 Values of Test Compounds)
Streptavidin, obtained from Vector Laboratories, was dissolved in 0.1 M carbonate buffer (composition: 90 mM Na2CO3, 10 mM NaHCO3) at concentration of 40 μg/ml. After coating each well of microtiter plates (obtained from NUNC) with 50 μl of the above solution at 4° C. over night, each well was washed twice with PBS (composition: 13.7 mM NaCl, 0.27 mM KCl, 0.43 mM Na2HPO4, 0.14 mM KH2PO4) and blocked with 300 μl of 1% skim milk in PBS for 30 min. Additionally, each well was washed twice with PBS and added 50 μl of substrate DNA solution (2 pmol/μl). The microtiter plates were kept at room temperature for 30 min. Then, each well was washed twice with PBS and once with H2O.
Subsequently, in the each well prepared above were added 45 μl of the reaction buffer prepared from 12 μl of the buffer (composition: 150 mM MOPS (pH 7.2), 75 mM MnCl2, 50 mM 2-mercaptoethanol, 25% glycerol, 500 μg/ml bovine serum albumin-fraction V), 1 μl of target DNA (5 pmol/μl), and 32 μl of the distilled water. Additionally, 6 μl of either a test compound in DMSO or DMSO for positive control(PC) was mixed with the above reaction buffer, then 9 μl of an integrase solution (30 pmol) was added and mixed well. In the well of negative control (NC) was added 9 μl of the integrase dilution buffer (composition: 20 mM MOPS (pH7.2), 400 mM potassium glutamate, 1 mM EDTA, 0.1% NP-40, 20% glycerol, 1 mM DTT, 4M urea).
The microtiter plates were incubated at 30° C. for 1 hour. The reaction solution was removed and each well was washed twice with PBS. Subsequently, each well of the microtiter plates was filled with 100 μl of anti-digoxigenin antibody labeled with alkaline phosphatase (Sheep Fab fragment: obtained from Boehringer) and incubated at 30° C. for 1 hour. Then, each well was washed twice with 0.05% Tween20 in PBS and once with PBS. Next, 150 μl of the Alkaline phosphatase reaction buffer (composition: 10 mM p-Nitrophenylphosphate (obtained from Vector Laboratories), 5 mM MgCl2, 100 mM NaCl, 100 mM Tris-HCl (pH 9.5))was added in each well. […] The optical density (OD) at 405 nm of each well was measured and the percent inhibition was determined by the following expression.
The percent inhibition (%)=100[1-{(C abs.−NC abs.)/(PC abs.−NC abs.)}]
C abs.; the OD of the well of the compounds
NC abs.: the OD of the negative control (NC)
PC abs.: the OD of the positive control (PC)
IC50(μg/ml)=x−{(X−50)(x−y)/(X−Y)}

Row | SMILES | IC50 (HIV-1 integrase) | melting point
1 | Cn1ccnc1C(O)=CC(=O)c1ccc(Cc2ccc(F)cc2)o1 [I-100, 1-[5-(4-Fluorobenzyl)furan-2-yl]-3-hydroxy-3-(1-methyl-1H-imidazol-2-yl)-propenone] | 4.9 µM | 56 to 57 °C
2 | CCCc1nc(C(O)=CC(=O)c2ccc(Cc3ccc(F)cc3)o2)n[nH]1 [I-112, 1-[5-(4-Fluorobenzyl)furan-2-yl]-3-hydroxy-3-(5-propyl-1H-1,2,4-triazol-3yl)-propenone] | 1.72 µM | 167 to 168 °C
3 | O=C(C=C(O)c1nc[nH]n1)c1cnc(Cc2ccc(F)cc2)o1 [I-150, 1-[2-(4-Fluorobenzyl)oxazolyl-5-yl]-3-hydroxy-3-(1H-1,2,4-triazol-3-yl)-propenone] | 3.12 µM | 200 to 203 °C
